Test results as given in EP4678179A1, “PHARMACEUTICAL COMPOSITION CONTAINING ACTIVE SULFUR MOLECULE” (Tohoku University, priority 2023, dated 2024).

Tests used:
HDM-treated mice = assay: HDM-induced mouse asthma model (type 2 airway inflammation), intraperitoneal GSSSG; format: in vivo
Method: Asthma model mice were created according to a previous report (Ishii et al., Scandinavian journal of immunology. 2018; 87 (3)). Specifically, as shown in the FIG. 5A, mice were intranasally administered with HDM extract (at the indicated doses in PBS) under isoflurane anesthesia to induce asthma.
Twenty four (24) hours after the last dose of HDM, the mice were anesthetized and sacrificed by exsanguination. The alveoli were washed three times with 500 µL of 10 mM PBS, and the bronchial alveolar lavage fluid (BALF) was collected. For 5 minutes, […], then the supernatant was stored for biochemical analysis, and the cellular pellet was resuspended in 500 µL of 10 mM PBS. The total number of cells was counted using a Scepter handheld automated cell counter (Millipore), followed by cytospin specimen preparation and staining with Diff-Quick (Sysmex) or Eosinostain-Torii (Torii Pharmaceutical).
Isolation of cells from mouse lung tissue and FCM were performed according to previous reports (Gomez et al., American journal of respiratory cell and molecular biology. 2015; 52 (3): 349-64., and Yamada et al., American journal of respiratory and critical care medicine. 2011; 183 (10): 1391-401.). For histological examination of lung inflammation, lung sections were stained with hematoxylin and eosin (HE). Lung inflammation was semi-quantified and evaluated according to a previous report.
It was investigated whether intraperitoneal administration of GSSSG in vivo suppresses an HDM-induced type 2 airway inflammation. […] Thus, GSSSG has therapeutic potential in CD4 T cell-mediated type 2 inflammatory diseases, including asthma, by organizing TCR signaling.

Rag2-/- host mice = assay: T cell transfer enteritis (IBD) model: naive CD4+ T cells transferred into Rag2-/- mice, GSSSG administered intraperitoneally; format: in vivo
Description: CD4^+ T cells were magnetically sorted from splenocytes of young mice (from 8 to 12 weeks old). Then, naive CD4^+ T cells (CD3^+ CD4^+ CD25^- CD44^lo CD62L^hi or CD3^+ CD4^+ Foxp3-RFP^- CD44^lo CD62L^hi) were sorted using FACS AriaII (BD Bioscience) based on fluorescently labeled monoclonal antibodies or reporter fluorescent proteins. In experiments to confirm homeostatic maintenance proliferation, naive CD4^+ T cells were labeled with carboxyfluorescein succinimidyl ester (CFSE) (Thermo Fisher Scientific), and were injected into the tail veins of CD45.1 host mice irradiated with a sublethal dose (5.5 Gy), at 1 × 10^6 cells per mouse 1 day before transfer. In experiments to induce enteritis, wild-type or Cars2^+/- naive CD4^+ T cells were injected into the tail veins of Rag2^-/- mice at 3 × 10^5 cells per mouse. In experiments to evaluate the function of regulatory T cells, Cars2^+/+ naive CD4^+ T cells were co-transferred with regulatory T cells derived from Cars2^+/- Foxp3-RFP reporter mice (1 × 10^5 cells/mouse). In GSSSG administration experiments, GSSSG (400 nmol/mouse) was intraperitoneally administered to the Rag2^-/- host mice every day from the same day as the day when the naive CD4^+ T cells were transferred.
At the stage where from 3 to 4 weeks had elapsed after the transfer of the naive T cells, the large intestines of the Rag2^-/- host mice were collected and fixed with 10% formalin. After the fixed samples were embedded in paraffin, 5-µm-thick sections were cut out and subjected to hematoxylin-eosin staining (H & E) and immunostaining with a CD4 monoclonal antibody (mAb) (EPR19514). The histological inflammation score was classified into three groups with reference to a previous report (Biswas et al., Nat Commun 9, 1779 (2018)).
Therefore, using the same IBD model, wild-type and Cars2+/- naive CD4+ T cells were adoptively transferred to Rag2-/- mice, and the properties of the donor cells and the IBD pathological conditions of the host mice were observed over time. […] Since there was no significant difference in proportion of dead cells between the two groups (FIGS. 4F, 5C, and 5F), the reason for the increase in number of accumulated cytokine-producing Cars2+/- T cells is considered to be enhanced homeostatic maintenance proliferation of the donor cells.
To confirm whether CARS2 suppresses the proliferation of enteritis pathogenic T cells via active sulfur, GSSSG, which is a donor of an active sulfur molecule, was administered to Rag2-/- host mice, and as a result, the body weight loss of the individuals transplanted with Cars2+/- CD4+ T cells was suppressed, and the reduction in histological enteritis images was observed (FIGS. 8A to 8C).

human CD4+ T cells = assay: Cell cycle analysis of human naive CD4+ T cells stimulated with CD3/CD28 in the presence or absence of GSSSG; format: cell-based; conditions: naive CD4+ T cells from peripheral bloods of healthy individuals; CD3/CD28 stimulation; GSSSG 1 µM; 48 hours; FIG. 10E
Method: Peripheral mononuclear blood cells were isolated using Vacutainer (BD Bioscience), and naive CD4^+ T cells (CD3^+ CD4^+ CD25^- CD45RO^- CD45RA^+) were purified from the isolated mononuclear cells using FACS AriaII (BD Bioscience). The purified naive CD4^+ T cells were seeded in a 96-well plate at 5 × 10^4 cells per well, and stimulated with Dynabeads™ Human T-Activator CD3/CD28 (Thermo Fischer Scientific) in an RPMI medium (10% FCS) in the presence or absence of GSSSG (1 µM) for 48 hours.
Finally, the involvement of active sulfur in the regulation of the proliferation of human CD4+ T cells was examined through in vitro cell culture. Specifically, naive CD4+ T cells purified from peripheral bloods of healthy individuals were stimulated with CD3/CD28 in the presence and absence of GSSSG to induce the proliferative response, and the cell cycle was analyzed 48 hours after the stimulation. […] Thus, it was shown that CARS2-dependent active sulfur metabolism also suppresses the cell cycle entry also in human CD4+ T cells and limits the proliferation of the same cells.

SMILES: N[C@@H](CCC(=O)N[C@@H](CSSSC[C@H](NC(=O)CC[C@H](N)C(=O)O)C(=O)NCC(=O)O)C(=O)NCC(=O)O)C(=O)O [GSSSG, glutathione trisulfide]
- accumulation of inflammatory cells, particularly eosinophils, in the airways (HDM-treated mice; both Cars2+/- mice and WT mice, HDM-treated, 1 mM GSSSG intraperitoneal, BALF, FIG. 14E): significantly suppressed
- lung inflammation (HDM-treated mice; both HDM-treated Cars2+/- mice and HDM-treated WT mice, GSSSG treatment, HE-stained lung tissue, FIG. 14F): significantly reduced
- goblet cell hyperplasia (HDM-treated mice; both HDM-treated Cars2+/- mice and HDM-treated WT mice, GSSSG treatment, PAS-stained lung tissue, FIG. 14G): significantly reduced
- therapeutic effect (Rag2-/- host mice; Rag2-/- host mice transfused with wild-type CD4+ T cells, GSSSG 400 nmol/mouse intraperitoneally every day, FIGS. 9A to 9C): no significant therapeutic effect
- body weight loss (Rag2-/- host mice; Rag2-/- host mice transplanted with Cars2+/- CD4+ T cells, GSSSG 400 nmol/mouse intraperitoneally every day, FIG. 8A): suppressed
- histological enteritis images (Rag2-/- host mice; Rag2-/- host mice transplanted with Cars2+/- CD4+ T cells, GSSSG 400 nmol/mouse intraperitoneally every day, large intestine, H & E and CD4 immunostaining, FIGS. 8B, 8C): reduction
- enteritis induced by Cars2+/- CD4+ T cells (Rag2-/- host mice; figure legend of FIG. 8, administration of GSSSG to host mice): improved
- cell cycle entry of the naive CD4+ T cells (human CD4+ T cells): significantly suppressed
